Measured values as given in publication PMC9772252 (Cell chemical biology, 2022).

Biological target: T1, GPX4 (glutathione peroxidase 4) (Homo sapiens, UniProt P36969, U73C)
T1 sequence (P36969 33-197 U73C): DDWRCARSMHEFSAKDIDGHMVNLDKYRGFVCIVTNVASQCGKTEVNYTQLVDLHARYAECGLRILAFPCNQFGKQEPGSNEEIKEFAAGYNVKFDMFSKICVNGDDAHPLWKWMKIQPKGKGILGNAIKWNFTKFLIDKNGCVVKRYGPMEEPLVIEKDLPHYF
Assay: SPR
Format: binding

Structure (SMILES): COC(=O)c1ccc([C@H]2c3[nH]c4ccccc4c3C[C@H](C(=O)OC)N2C(C)=O)cc1 [RSL3-minus-Cl, Methyl (1S,3R)-2-acetyl-1-(4-(methoxycarbonyl)phenyl)-2,3,4,9-tetrahydro-1H-pyrido[3,4-b] indole-3-carboxylate]
- Kd: 60 µM
